Data as given in patent US20190388421A1, “NOVEL COMPOUNDS AND PHARMACEUTICAL COMPOSITIONS THEREOF FOR THE TREATMENT OF FIBROSIS” (Galapagos NV, priority 2016, published 2019).

Columns and labels:
[1] = target: T1, human GPCR sphingosine 1-phosphate receptor 5 (S1PR5) (Homo sapiens, UniProt Q9H228); test: S1PR5 selectivity assay (Ca2+ flux, antagonist, S1PR5 specific agonist trigger); type: cell-based; conditions: S1P5 antagonist EC50, CHO cells overexpressing human S1PR5 and Gq protein
T1 construct: host or cells: CHO
Description: (§1) After readout of the agonist activity, the plates are incubated for 15 min at 37° C. and 5% CO2. Then, cells are stimulated with 10 μL Sphingosine-1-Phosphate (S1P) (Avanti Polar lipids-860492P) at its EC80 concentration. Intracellular Ca^2+ changes are immediately measured by reading fluorescence during 3 min (FDSS/μCELL reader). The ratio of the maximal fluorescence over the background fluorescence before compound injection is used to determine compound response.
(§2) For EC50 determination, a 10 point dilution series of compounds starting from 23.3 μM and 20 μM highest final concentration for agonist and antagonist respectively, ⅓ dilution was performed.
(§3) The obtained ratio's for agonist and antagonist readout were normalized versus vehicle and EC100 of S1P as controls for agonist mode and versus vehicle and EC80 of S1P for antagonist mode. From these normalized data EC50 of the compounds are derived.
(§4) To evaluate the selectivity of the compounds for S1PR2 over S1PR1 and S1PR5, a similar assay set up as described above for the S1PR2 calcium flux assays was performed: CHO cells stably overexpressing human GPCR sphingosine 1-phosphate receptor 1 and Gq protein (Euroscreen, FAST-0197A) or overexpressing human GPCR sphingosine 1-phosphate receptor 5 and Gq protein were used (Perkin Elmer, ES-593-A). In case of the S1PR5 assay triggering was done with an S1PR5 specific agonist instead of with S1P (Hobson et al., 2015).

[2] = target: T2, human GPCR sphingosine 1-phosphate receptor 1 (S1PR1) (Homo sapiens, UniProt P21453); test: S1PR1 selectivity assay (Ca2+ flux, antagonist); type: cell-based; conditions: S1P1 antagonist EC50, CHO cells overexpressing human S1PR1 and Gq protein
T2 construct: host or cells: CHO
Description: as §1, §2, §3, §4

[3] = target: T3, S1PR2 (Homo sapiens, UniProt O95136); test: GTP-γS binding assay ([35S]GTPγS, S1P at EC80, S1PR2 membranes); type: biochemical; conditions: membranes from stable cell line over expressing S1PR2, read-out: S1PR2 EC
T3 construct: expressed in transfected cells
Description: The following assay can be used for determination of S1PR2 activation. The [^35S] GTPγS assay measures the level of G protein activation following agonist occupation of a GPCR, by determining the binding of the non-hydrolysable analog [^35S] GTPγS to Gα subunits.
The assay is performed in a 96 well plate where the following reagents are added. First 50 μL compound is added into the assay plate, followed by addition of 20 μL S1P at EC80 concentration (concentration which gives 80% of the activity of S1PR2). Then, 30 μL of a mixture consisting of membranes-GTPγS-SpA beads is added [mixture consists of 2.5 μg/well membranes derived from stable cell line over expressing S1PR2 (membranes are pre-incubated with 1 μM GDP for 15 min at 4° C.), 0.1 nM [35S]GTPγS (Perkin Elmer, NEG030) and 0.5 mg/well PVT-WGA SpA beads (Perkin Elmer, RPNQ0001)]. All components are diluted in assay buffer containing 20 mM Tris pH 7.5; 10 mM MgCl2; 100 mM NaCl; 0.1% BSA FAF; 50 ug/ml saponin. After an incubation for 4 h at room temperature, plates are centrifuged at 2000 rpm during 20 min. Plates are read on a Topcount reader (Perkin Elmer) immediately after centrifugation (readout time, 1 min/well).

[4] = target: T4, human GPCR sphingosine 1-phosphate receptor 2 (S1PR2) (Homo sapiens, UniProt O95136); test: S1P2 antagonist assay (Ca2+ flux, S1P at EC80); type: cell-based; conditions: CHO-S1PR2 cells, highest concentration 20 μM
T4 construct: host or cells: CHO
Description: Triggering of S1PR2 by administration of Sphingosine-1-phosphate leads to a transient increase in intracellular Ca^2+. The Ca^2+ flux assays are measuring the release of Ca^2+ intracellularly by use of a Ca^2+ sensitive fluorescent dye. The assay is firstly run in agonist mode (incubation of compounds alone) to ensure that the Ca^2+ released measured is not caused by the test compound having an agonistic effect. Then the assay is continued in antagonist mode (Sphingosine-1-Phosphate added to incubated medium containing the test compounds).
CHO cells stably overexpressing human GPCR sphingosine 1-phosphate receptor 2 (CHO—S1PR2 Perkin Elmer; ES-594-A) are seeded from a frozen stock in 384 wells sterile microplates (50 μL; 7,500 cells/well) and are incubated overnight at 37° C. and 5% CO2. The next day cells are washed twice with starvation medium (F-12 Ham's medium containing 0.1% BSA (Fatty acid free: FAF)) and left in […] starvation medium for 1 h at 37° C., 5% CO2. After this starvation cells are incubated with […] buffer containing the Ca^2+-sensitive fluorescent dye (0.5 mg Fluo8+125 mg Allura Red in 100 ml of 1% DMSO, in HBSS+20 mM Hepes+5 mM probenecid). The cells are incubated for an additional 1 hour after which 10 μL compounds, diluted in HBSS buffer with 20 mM Hepes and 0.1% BSA (FAF), are added to the cells and intracellular Ca^2+ changes are immediately measured by reading fluorescence during 3 min (FDSS/μCELL reader). The ratio of the maximal fluorescence over the background fluorescence before compound injection is used to determine compound response.
as §1, §2, §3

T2 sequence (P21453 whole entry): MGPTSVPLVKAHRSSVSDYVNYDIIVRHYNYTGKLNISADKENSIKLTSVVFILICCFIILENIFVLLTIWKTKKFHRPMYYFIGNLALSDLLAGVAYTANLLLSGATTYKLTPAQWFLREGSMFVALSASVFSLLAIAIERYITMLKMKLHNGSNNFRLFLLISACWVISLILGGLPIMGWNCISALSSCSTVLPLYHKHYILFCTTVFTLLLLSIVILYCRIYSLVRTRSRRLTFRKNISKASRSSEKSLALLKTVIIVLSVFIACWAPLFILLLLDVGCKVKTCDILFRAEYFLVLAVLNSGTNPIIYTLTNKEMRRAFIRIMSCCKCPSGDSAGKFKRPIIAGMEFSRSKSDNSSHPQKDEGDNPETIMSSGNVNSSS
T3 sequence (O95136 whole entry): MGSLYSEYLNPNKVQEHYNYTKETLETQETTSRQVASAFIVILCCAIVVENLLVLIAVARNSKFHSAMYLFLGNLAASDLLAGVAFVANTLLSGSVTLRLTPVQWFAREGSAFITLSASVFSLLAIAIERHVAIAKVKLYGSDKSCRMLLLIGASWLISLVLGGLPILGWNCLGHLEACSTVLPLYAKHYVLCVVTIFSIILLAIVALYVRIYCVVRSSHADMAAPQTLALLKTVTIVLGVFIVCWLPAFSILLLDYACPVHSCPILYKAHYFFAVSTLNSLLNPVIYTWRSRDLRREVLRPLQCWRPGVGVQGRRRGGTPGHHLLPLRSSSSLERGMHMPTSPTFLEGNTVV
T4 sequence (O95136 whole entry): as above
T1 sequence (Q9H228 whole entry): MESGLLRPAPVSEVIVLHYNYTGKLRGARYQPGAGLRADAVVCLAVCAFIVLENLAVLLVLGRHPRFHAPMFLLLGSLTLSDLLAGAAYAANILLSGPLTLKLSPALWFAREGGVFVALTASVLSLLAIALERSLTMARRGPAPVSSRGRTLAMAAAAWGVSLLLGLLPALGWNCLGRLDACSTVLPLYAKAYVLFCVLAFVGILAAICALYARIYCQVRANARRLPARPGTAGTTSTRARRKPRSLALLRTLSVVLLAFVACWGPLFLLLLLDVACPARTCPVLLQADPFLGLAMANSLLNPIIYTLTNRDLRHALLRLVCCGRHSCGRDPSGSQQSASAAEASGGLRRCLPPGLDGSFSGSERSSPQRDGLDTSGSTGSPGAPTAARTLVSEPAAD

Row | SMILES | EC50 [1] [nM] | EC50 [2] [nM] | EC50 [3] [nM] | EC50 [4] [nM]
1 | Cc1cc(CNC(=O)Nc2cnc(OCC(F)F)c(Cl)c2)nnc1-c1cn(C)nc1C(F)(F)F [Compound 9, 1-[5-chloro-6-(2,2-difluoroethoxy)-3-pyridyl]-3-[[5-methyl-6-[1-methyl-3-(trifluoromethyl)pyrazol-4-yl]pyridazin-3-yl]methyl]urea] | ≥ 19800 | ≥ 19800 | 532 | 23.7
2 | CCOc1ncc(NC(=O)NCc2cc(C)c(-c3cn(C)nc3C(F)(F)F)nn2)cc1C(F)(F)F [Compound 10, 1-[6-ethoxy-5(trifluoromethyl)-3-pyridyl]-3-[[5-methyl-6-[1-methyl-3-(trifluoromethyl)pyrazol-4-yl]pyridazin-3-yl]methyl]urea] | ≥ 19800 | ≥ 19800 | 281 | 15
3 | CCOc1cc(NC(=O)NCc2cc(C)c(-c3cn(COC)nc3C(F)(F)F)nn2)cc(Cl)n1 [Compound 15] | ≥ 19800 | 6610 | 91.6 | 9.2
4 | Cc1cc(CNC(=O)Nc2cc(Cl)nc(OCC(F)F)c2)nnc1-c1cn(C)nc1C(F)(F)F [Compound 17, 1-[2-chloro-6-(2,2-difluoroethoxy)-4-pyridyl]-3-[[5-methyl-6-[1-methyl-3-(trifluoromethyl)pyrazol-4-yl]pyridazin-3-yl]methyl]urea] | 6610 | 4940 | 36.1 | 8.6
5 | CCOc1nc(Cl)cc(NC(=O)NCc2cc(C)c(-c3cn(C)nc3C(F)(F)F)nn2)c1C [Compound 20, 1-(6-chloro-2-ethoxy-3-methyl-4-pyridyl)-3-[[5-methyl-6-[1-methyl-3-(trifluoromethyl)pyrazol-4-yl]pyridazin-3-yl]methyl]urea] | 2100 | 3870 | 15.2 | 8.8
6 | CCOc1cc(NC(=O)NCc2cc(C)c(-c3cn(C)nc3C(F)(F)F)nn2)cc(C2CC2)n1 [Compound 22, 1-(2-cyclopropyl-6-ethoxy-4-pyridyl)-3-[[5-methyl-6-[1-methyl-3-(trifluoromethyl)pyrazol-4-yl]pyridazin-3-yl]methyl]urea] | ≥ 19800 | 6610 | 86 | 17.3
7 | Cc1cc(CNC(=O)Nc2cnc(Cl)c(OCC(F)F)c2)nnc1-c1cn(C)nc1C(F)(F)F [Compound 23, 1-[6-chloro-5-(2,2-difluoroethoxy)-3-pyridyl]-3-[[5-methyl-6-[1-methyl-3-(trifluoromethyl)pyrazol-4-yl]pyridazin-3-yl]methyl]urea] | ≥ 19800 | ≥ 19800 | 74.5 | 10.6
8 | CCOc1cc(NC(=O)NCc2cc(C)c(-c3cn(C)nc3C(F)(F)F)nn2)cnc1Cl [Compound 24, 1-(6-chloro-5-ethoxy-3-pyridyl)-3-[[5-methyl-6-[1-methyl-3-(trifluoromethyl)pyrazol-4-yl]pyridazin-3-yl]methyl]urea] | ≥ 19800 | ≥ 19800 | 53.8 | 8.7
9 | COCCOc1cc(NC(=O)NCc2cc(C)c(-c3cn(C)nc3C(F)(F)F)nn2)cc(C(F)(F)F)n1 [Compound 25, 1-[2-(2-methoxyethoxy)-6-(trifluoromethyl)-4-pyridyl]-3-[[5-methyl-6-[1-methyl-3-(trifluoromethyl)pyrazol-4-yl]pyridazin-3-yl]methyl]urea] | ≥ 19800 | ≥ 19800 | 2030 | 792
10 | Cc1cc(CNC(=O)Nc2cc(OC3CCOC3)nc(C(F)(F)F)c2)nnc1-c1cn(C)nc1C(F)(F)F (stereo not shown) [Compound 26, 1-[[5-methyl-6-[1-methyl-3-(trifluoromethyl)pyrazol-4-yl]pyridazin-3-yl]methyl]-3-[2-tetrahydrofuran-3-yloxy-6-(trifluoromethyl)-4-pyridyl]urea] | ≥ 19800 | ≥ 19800 | 770 | 110
